Source: Sander's compilation of Henry's law constants (doi:10.1021/je025545i)

Assay: Henry solubility constant Hcp at 298.15 K (mol/(m3 Pa))
Details: reference: Destaillats and Charles (2002)

Compound	Henry solubility constant Hcp
CC(C)=NOCc1c(F)c(F)c(F)c(F)c1F [PFBHA-propanone]	0.011
C=C/C=N/OCc1c(F)c(F)c(F)c(F)c1F [PFBHA-propenal]	0.0095
CCCCCCCCC/C=N/OCc1c(F)c(F)c(F)c(F)c1F [PFBHA-decanal]	0.024
CC/C(C)=N\OCc1c(F)c(F)c(F)c(F)c1F [PFBHA-butanone]	0.0047
C/C=C/C=N/OCc1c(F)c(F)c(F)c(F)c1F [PFBHA-crotonaldehyde]	0.0068
c1ccc(-c2ccccc2)cc1 [biphenyl]	0.034
Cc1ccccc1 [methylbenzene]	0.002

Next, values leading:

Henry solubility constant Hcp	Compound
0.016	Fc1c(F)c(F)c(CON=CC=NOCc2c(F)c(F)c(F)c(F)c2F)c(F)c1F [PFBHA-ethanedial]
0.024	c1ccc2ccccc2c1 [naphthalene]
0.016	C=NOCc1c(F)c(F)c(F)c(F)c1F [PFBHA-methanal]
0.005	Fc1c(F)c(F)c(CO/N=C/c2ccccc2)c(F)c1F [PFBHA-benzaldehyde]
0.0058	CCCCC/C=N/OCc1c(F)c(F)c(F)c(F)c1F [PFBHA-hexanal]
0.0079	CCCCCCC/C=N/OCc1c(F)c(F)c(F)c(F)c1F [PFBHA-octanal]
0.019	CC=NOCc1c(F)c(F)c(F)c(F)c1F [PFBHA-ethanal]
